Test results as given in patent US5852018A, “Pharmaceutical piperazine compounds” (Xenova Limited, priority 1994, dated 1998).

System: AR 1.0 cells
Experiment: Drug accumulation assay (tritiated daunorubicin) in MDR resistant AR 1.0 cells
Assay type: cell-based
Conditions: Mus musculus, 1 h, DNR 2 μM, 100% = accumulation with 100 μM Verapamil, read-out: MAX accumulation (% 100 μm VRP)
Experimental: The EMT6 mouse mammary carcinoma cell line and the MDR resistant subline AR 1.0 were cultured in RPMI 1640 medium containing 10% foetal calf serum and 2 mM glutamine at 37° C. in 5% CO2 . Cells were passaged between 1 in 200 and 1 in 2000 in the case of the parental cell line and between 1 in 20 and 1 in 200 in the case of the MDR resistant subline, after trypsinisation (0.25% trypsin, 0.2 gl^-1, EDTA).
AR 1.0 cells were seeded into 96 well opaque culture plates (Canberra Packard). The assay medium contained a mixture of tritiated Daunorubicin (DNR), a cytotoxic agent, and unlabelled DNR (0.25μ Ci/ml; 2 μM). Compounds of formula A were serially diluted in assay medium over a range of concentrations from 100 nM to 100 μM. The cells were incubated at 37° C. for 1 hr before washing and counting of cell associated radioactivity. Each assay included a titration of the known resistance modifying agent Verapamil as positive control. Results were expressed as % maximum accumulation where 100% accumulation is that observed in the presence of 100 μM Verapamil.

Compound	Emax [%]
COC(=O)Cn1c(=O)/c(=C/c2ccc(OC)cc2)[nH]c(=O)/c1=C/c1ccccc1 [Compound 1490, Methyl (3Z,6Z)-6-benzylidene-3-(4-methoxybenzylidene)-2,5-dioxo-1-piperazinylacetate]	63.6
CC(C)Oc1n/c(=C\c2ccccc2)c(=O)n(C)/c1=C\c1ccccc1 [Compound 1819, (3Z,6Z)-3,6-Dibenzylidene-5-isopropoxy-1-methyl-3,6-dihydro-2-pyrazinone]	23
COc1ccc(/C=c2\nc(OCC3CC3)/c(=C/c3ccccc3)n(C)c2=O)cc1 [Compound 1745, (3Z,6Z)-6-Benzylidene-5-cyclopropylmethoxy-3-(4-methoxybenzylidene)-1-methyl-3,6-dihydro-2-pyrazinone]	35
COc1ccc(/C=c2/c(=O)[nH]/c(=C\c3ccccc3)c(=O)n2CC(=O)N(C)C)cc1 [Compound 1614, N,N,-Dimethyl-(3Z,6Z)-3-benzylidene-6-(4-methoxybenzylidene)-2,5-dioxo-1-piperazinylacetamide]	25
CC(C)COc1n/c(=C\c2ccccc2)c(=O)n(C)/c1=C\c1ccccc1 [Compound 1821, (3Z,6Z)-3,6-Dibenzylidene-5-isobutoxy-1-methyl-3,6-dihydro-2-pyrazinone]	35
COc1n/c(=C\c2ccccc2)c(=O)n(C)/c1=C\c1ccccc1 [Compound 1771]	60
C=CCOc1n/c(=C\c2ccccc2)c(=O)n(C)/c1=C\c1ccccc1 [Compound 1864, (3Z,6Z)-5-Allyloxy-3,6-dibenzylidene-1-methyl-3,6-dihydro-2-pyrazinone]	45
Cn1c(=O)/c(=C/c2ccccc2)nc(OCC2CCCCC2)/c1=C/c1ccccc1 [Compound 1780]	20
CC=CCOc1n/c(=C\c2ccccc2)c(=O)n(C)/c1=C\c1ccccc1 [Compound 1861, (3Z,6Z)-3,6-Dibenzylidene-5-(2-butenyloxy)-1-methyl-3,6-dihydro-2-pyrazinone]	46
C=CCCOc1n/c(=C\c2ccccc2)c(=O)n(C)/c1=C\c1ccccc1 [Compound 1826, (3Z,6Z)-3,6-Dibenzylidene-5-(3-butenyloxy)-1-methyl-3,6-dihydro-2-pyrazinone]	40
Cn1c(=O)/c(=C/c2ccccc2)nc(OCN2C(=O)c3ccccc3C2=O)/c1=C/c1ccccc1 [Compound 1905, (3Z,6Z)-3,6-Dibenzylidene-1-methyl-5-phthalimidomethoxy-3,6-dihydro-2-pyrazinone]	29
CC(=O)OCCCCOc1n/c(=C\c2ccccc2)c(=O)n(C)/c1=C\c1ccccc1 [Compound 1904, (3Z,6Z)-5-(4-Acetoxybutoxy)-3,6-dibenzylidene-1-methyl-3,6-dihydro-2-pyrazinone]	47
Cn1c(=O)/c(=C/c2ccccc2)n(CCBr)c(=O)/c1=C/c1ccccc1 [Compound 1803, (3Z,6Z)-3,6-Dibenzylidene-1-(2-bromoethyl)-4-methyl-2,5-piperazinedione]	50
O=c1/c(=C/c2ccccc2)n(Cc2ccccc2)c(=O)/c(=C/c2ccccc2)n1Cc1ccccc1 [Compound 1906, (3Z,6Z)-1,4-Dibenzyl-3,6-dibenzylidene-2,5-piperazinedione]	34
COc1ccc(/C=c2\[nH]c(=O)/c(=C/c3ccccc3)n(CC(=O)N3CCCC3)c2=O)cc1 [Compound 1526, N,N-Tetramethylene-(3Z,6Z)-6-benzylidene-3-(4-methoxybenzylidene)-2,5-dioxo-1-piperazinylacetamide]	23.3
CCOc1n/c(=C\c2ccccc2)c(=O)n(C)/c1=C\c1ccccc1 [Compound 1801, (3Z,6Z)-3,6-Dibenzylidene-5-ethoxy-1-methyl-3,6-dihydro-2-pyrazinone]	40
Cn1c(=O)/c(=C/c2ccccc2)nc(OCCc2ccccc2)/c1=C/c1ccccc1 [Compound 1820, (3Z,6Z)-3,6-Dibenzylidene-1-methyl-5-(2-phenethoxy)-3,6-dihydro-2-pyrazinone]	34
Cn1c(=O)/c(=C/c2ccccc2)nc(OCC#N)/c1=C/c1ccccc1 [Compound 1827, (3Z,6Z)-3,6-Dibenzylidene-1-methyl-2-oxo-1,2,3,6-tetrahydro-5-pyrazinyloxyacetonitrile]	35

Same assay, conditions: Mus musculus, DNR 2 μM, 37° C., 1 hr

Compound	IC50 [µM]
CCCCCOc1n/c(=C\c2ccccc2)c(=O)n(C)/c1=C\c1ccccc1 [Compound 1855]	10
COC(=O)Cn1c(=O)/c(=C/c2ccc(OC)cc2)[nH]c(=O)/c1=C/c1ccccc1 [Compound 1490, Methyl (3Z,6Z)-6-benzylidene-3-(4-methoxybenzylidene)-2,5-dioxo-1-piperazinylacetate]	30
Cn1c(=O)/c(=C/c2ccccc2)nc(OCc2ccncc2)/c1=C/c1ccccc1 [Compound 1901, (3Z,6Z)-3,6-Dibenzylidene-1-methyl-5-(4-pyridyl)methoxy-3,6-dihydro-2-pyrazinone]	12
CN(C)CCCOc1n/c(=C\c2ccccc2)c(=O)n(C)/c1=C\c1ccccc1 [Compound 1900, (3Z,6Z)-3,6-Dibenzylidene-5-(3-dimethylaminopropoxy)-1-methyl-3,6-dihydro-2-pyrazinone]	3
CC=CCn1c(=O)/c(=C/c2ccccc2)n(C)c(=O)/c1=C/c1ccccc1 [Compound 1862, (3Z,6Z)-3,6-Dibenzylidene-1-(but-2-enyl)-4-methyl-2,5-piperazinedione]	8
COc1n/c(=C\c2ccccc2)c(=O)n(C)/c1=C\c1ccccc1 [Compound 1771]	70
Cn1c(=O)/c(=C/c2ccccc2)n(CC=CCBr)c(=O)/c1=C/c1ccccc1 [Compound 1860]	10
COc1ccc(/C=c2/c(=O)n(C)/c(=C\c3ccccc3[N+](=O)[O-])c(=O)n2Cc2ccccc2)cc1 [Compound 1879, (3Z,6Z)-1-Benzyl-6-(4-methoxybenzylidene)-4-methyl-3-(2-nitrobenzylidene)-2,5-piperazinedione]	2
Cn1c(=O)/c(=C/c2ccccc2)n(Cc2ccc([N+](=O)[O-])cc2)c(=O)/c1=C/c1ccccc1 [Compound 1939, (3Z,6Z)-3,6-Dibenzylidene-1-methyl-4-(4-nitrobenzylidene)-2,5-piperazinedione]	4
Cn1c(=O)/c(=C/c2ccccc2)n(Cc2cccc([N+](=O)[O-])c2)c(=O)/c1=C/c1ccccc1 [Compound 1936, (3Z,6Z)-3,6-Dibenzylidene-1-methyl-4-(3-nitrobenzylidene)-2,5-piperazinedione]	2
Cn1c(=O)/c(=C/c2ccccc2)n(CCO)c(=O)/c1=C/c1ccccc1 [Compound 1854, (3Z,6Z)-3,6-Dibenzylidene-1-(2-hydroxyethyl)-4-methyl-2,5-piperazinedione]	35
COc1ccc(/C=c2/c(=O)n(Cc3ccccc3)/c(=C\c3c(Cl)cccc3Cl)c(=O)n2C)cc1 [Compound 1878, (3Z,6Z)-1-Benzyl-6-(2,6-dichlorobenzylidene)-3-(4-methoxybenzylidene)-4-methyl-2,5-piperazinedione]	5
Cn1c(=O)/c(=C/c2ccccc2)nc(OCCCCN2C(=O)c3ccccc3C2=O)/c1=C/c1ccccc1 [Compound 1903, (3Z,6Z)-3,6-Dibenzylidene-1-methyl-5-(4-phthalimidobutoxy)-3,6-dihydro-2-pyrazinone]	9
Cn1c(=O)/c(=C/c2ccccc2)n(CCBr)c(=O)/c1=C/c1ccccc1 [Compound 1803, (3Z,6Z)-3,6-Dibenzylidene-1-(2-bromoethyl)-4-methyl-2,5-piperazinedione]	80
Cn1c(=O)/c(=C/c2ccccc2)nc(OCCN2C(=O)c3ccccc3C2=O)/c1=C/c1ccccc1 [Compound 1902, (3Z,6Z)-3,6-Dibenzylidene-1-methyl-5-(2-phthalimidoethoxy)-3,6-dihydro-2-pyrazinone]	11
CC(C)Cn1c(=O)/c(=C/c2ccccc2)n(C)c(=O)/c1=C/c1ccccc1 [Compound 1857, (3Z,6Z)-3,6-Dibenzylidene-1-isobutyl-4-methyl-2,5-piperazinedione]	10
Cn1c(=O)/c(=C/c2ccccc2)nc(OCCO)/c1=C/c1ccccc1 [Compound 1863, (3Z,6Z)-3,6-Dibenzylidene-5-(2-hydroxyethoxy)-1-methyl-3,6-dihydro-2-pyrazinone]	10
Cn1c(=O)/c(=C/c2ccccc2)n(CCc2ccccc2)c(=O)/c1=C/c1ccccc1 [Compound 1856, (3Z,6Z)-3,6-Dibenzylidene-4-methyl-1-phenethyl-2,5-piperazinedione]	15
Cn1c(=O)/c(=C/c2ccccc2)n(CC#N)c(=O)/c1=C/c1ccccc1 [Compound 1858, ((3Z,6Z)-3,6-Dibenzylidene-4-methyl-2,5-dioxo-1-piperazinyl)acetonitrile]	60
Cn1c(=O)/c(=C/c2ccccc2)nc(OCC=CCBr)/c1=C/c1ccccc1 [Compound 1859, (3Z,6Z)-3,6-Dibenzylidene-5-(4-bromo-2-butenyloxy)-1-methyl-3,6-dihydro-2-pyrazinone]	15

System: AR 1.0 cells
Experiment: Proliferation assay with and without fixed concentration of doxorubicin (sulphorhodamine B)
Assay type: cell-based, mouse
Conditions: Mus musculus, 96 h; compound alone, four days; read-out: COMPOUND TOXICITY (IC50)
Description: Compounds of formula A were examined for their ability to potentiate the toxicity of doxorubicin in AR 1.0 cells.

Compound	IC50 [µM]
CCCCCOc1n/c(=C\c2ccccc2)c(=O)n(C)/c1=C\c1ccccc1 [Compound 1855]	6
COC(=O)Cn1c(=O)/c(=C/c2ccc(OC)cc2)[nH]c(=O)/c1=C/c1ccccc1 [Compound 1490, Methyl (3Z,6Z)-6-benzylidene-3-(4-methoxybenzylidene)-2,5-dioxo-1-piperazinylacetate]	30

Same assay, conditions: cytotoxic agent 0.50 μg/ml, four days; 5760 min; read-out: TOXICITY WITH CYTOTOXIC AGENT (IC 50)

Compound	IC50 [µM]
CCCCCOc1n/c(=C\c2ccccc2)c(=O)n(C)/c1=C\c1ccccc1 [Compound 1855]	0.8

Same assay, conditions: cytotoxic agent 1.00 μg/ml, four days; 5760 min; read-out: TOXICITY WITH CYTOTOXIC AGENT (IC 50)

Compound	IC50 [µM]
COC(=O)Cn1c(=O)/c(=C/c2ccc(OC)cc2)[nH]c(=O)/c1=C/c1ccccc1 [Compound 1490, Methyl (3Z,6Z)-6-benzylidene-3-(4-methoxybenzylidene)-2,5-dioxo-1-piperazinylacetate]	2

Same assay, conditions: fixed concentration 0.5-1 μM

Compound	toxicity of doxorubicin alone to AR 1.0 cells
COc1cccc2c1C(=O)c1c(O)c3c(c(O)c1C2=O)C[C@@](O)(C(=O)CO)C[C@@H]3O[C@H]1C[C@H](N)[C@H](O)[C@H](C)O1 [doxorubicin, reference compound]	non-toxic
